The record followed here is article PMC7614683, “A small molecule PI3Kα activator for cardioprotection and neuroregeneration” (Nature, 2023).

One assay concerns the target T1, full length p110α/p85α (Homo sapiens, UniProt P42336).
T1 construct: Full-length human p110α was expressed either in a complex with full-length human p85α (for HTS, biochemistry and HDX-MS); 6xHis tag followed by TEV protease site (N); host or cells: Spodoptera frugiperda Sf9, baculovirus
Nature of the assay: Surface plasmon resonance. Format: binding. The settings on record: immobilized p110α/p85α; read-out: Kd for PI3Kα by surface plasmon resonance. As to the method:
SPR was performed with a Biacore T200, using CM7-sensor chips (Cytiva). Both reference control and analyte channels were equilibrated in HBS-P (Cytiva) supplemented with 5% (v/v) DMSO at 20°C. Full length p110α/p85α was immobilised onto the chip surface via amide coupling using the supplied kit (Cytiva) to reach an RU value of approximately 25,000 RU. Serial dilutions (1:2) of 1938 starting from 500 μM were injected over the chip for 60 s at 30 μL/min, with a 60 sec dissociation time. The data were double-referenced to the response on a blank but similarly modified flow channel and a buffer-only injection was subtracted. Any differences in the DMSO concentrations between the sample and buffer were corrected using the in-built solvent correction protocol. After reference and buffer signal correction, sensogram data were fitted using Prism 9.4.1 (GraphPad Software Inc). The responses at equilibrium (Req) of the were then fitted to a 1:1 binding model with a linear non-specific phase to determine Kd: (1) Req=(CRmax/C+Kd)+DC+B where C is the analyte concentration and Rmax is the maximum response at saturation, D is a non-specific response and B is the background resonance. Data were replotted correcting for the linear non-specific response. The binding was performed in triplicate.
In general terms: SPR reads the build-up and loss of mass on a sensor chip optically.

The next assay has as its target MYLK (MLCK) (Homo sapiens, UniProt Q15746). Nature of the assay: SelectScreen LanthaScreen Binding. The conditions noted are these: 1000 nM. Summed up: (§1)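 Kinases in the SelectScreen panel (Adapta, LanthaScreen binding, Z-LYTE formats) were tested against compound at 1 μM. Separately, ATM (100 nM, 5 μM GST-p53, 1 mM ATP, 30 min, 30°C) and mTORC1 (50 nM, 15 μM 4E-BP1, 250 μM ATP, 3 h) were run with 200 μM compound. Those products were read on Phos-tag gels.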
In general terms: In TR-FRET formats the signal depends on donor and acceptor labels being close together.

A further assay has as its target T2, STK17A (DRAK1) (Homo sapiens, UniProt Q9UEE5).
T2 sequence (Q9UEE5 1-414): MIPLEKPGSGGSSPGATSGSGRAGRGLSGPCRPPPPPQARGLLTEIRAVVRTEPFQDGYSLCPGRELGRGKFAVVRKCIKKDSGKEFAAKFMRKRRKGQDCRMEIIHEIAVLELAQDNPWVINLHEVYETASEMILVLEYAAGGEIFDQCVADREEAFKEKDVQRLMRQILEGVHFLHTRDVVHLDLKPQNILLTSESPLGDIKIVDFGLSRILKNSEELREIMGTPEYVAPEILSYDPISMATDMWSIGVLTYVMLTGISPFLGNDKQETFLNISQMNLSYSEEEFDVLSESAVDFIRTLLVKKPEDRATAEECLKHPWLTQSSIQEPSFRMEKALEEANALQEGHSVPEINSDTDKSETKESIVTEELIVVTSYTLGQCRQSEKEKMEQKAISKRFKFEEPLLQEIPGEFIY
Nature of the assay: SelectScreen LanthaScreen Binding. The settings on record: 1000 nM. Summed up: as §1

Chain of MYLK (MLCK) (Q15746 whole entry): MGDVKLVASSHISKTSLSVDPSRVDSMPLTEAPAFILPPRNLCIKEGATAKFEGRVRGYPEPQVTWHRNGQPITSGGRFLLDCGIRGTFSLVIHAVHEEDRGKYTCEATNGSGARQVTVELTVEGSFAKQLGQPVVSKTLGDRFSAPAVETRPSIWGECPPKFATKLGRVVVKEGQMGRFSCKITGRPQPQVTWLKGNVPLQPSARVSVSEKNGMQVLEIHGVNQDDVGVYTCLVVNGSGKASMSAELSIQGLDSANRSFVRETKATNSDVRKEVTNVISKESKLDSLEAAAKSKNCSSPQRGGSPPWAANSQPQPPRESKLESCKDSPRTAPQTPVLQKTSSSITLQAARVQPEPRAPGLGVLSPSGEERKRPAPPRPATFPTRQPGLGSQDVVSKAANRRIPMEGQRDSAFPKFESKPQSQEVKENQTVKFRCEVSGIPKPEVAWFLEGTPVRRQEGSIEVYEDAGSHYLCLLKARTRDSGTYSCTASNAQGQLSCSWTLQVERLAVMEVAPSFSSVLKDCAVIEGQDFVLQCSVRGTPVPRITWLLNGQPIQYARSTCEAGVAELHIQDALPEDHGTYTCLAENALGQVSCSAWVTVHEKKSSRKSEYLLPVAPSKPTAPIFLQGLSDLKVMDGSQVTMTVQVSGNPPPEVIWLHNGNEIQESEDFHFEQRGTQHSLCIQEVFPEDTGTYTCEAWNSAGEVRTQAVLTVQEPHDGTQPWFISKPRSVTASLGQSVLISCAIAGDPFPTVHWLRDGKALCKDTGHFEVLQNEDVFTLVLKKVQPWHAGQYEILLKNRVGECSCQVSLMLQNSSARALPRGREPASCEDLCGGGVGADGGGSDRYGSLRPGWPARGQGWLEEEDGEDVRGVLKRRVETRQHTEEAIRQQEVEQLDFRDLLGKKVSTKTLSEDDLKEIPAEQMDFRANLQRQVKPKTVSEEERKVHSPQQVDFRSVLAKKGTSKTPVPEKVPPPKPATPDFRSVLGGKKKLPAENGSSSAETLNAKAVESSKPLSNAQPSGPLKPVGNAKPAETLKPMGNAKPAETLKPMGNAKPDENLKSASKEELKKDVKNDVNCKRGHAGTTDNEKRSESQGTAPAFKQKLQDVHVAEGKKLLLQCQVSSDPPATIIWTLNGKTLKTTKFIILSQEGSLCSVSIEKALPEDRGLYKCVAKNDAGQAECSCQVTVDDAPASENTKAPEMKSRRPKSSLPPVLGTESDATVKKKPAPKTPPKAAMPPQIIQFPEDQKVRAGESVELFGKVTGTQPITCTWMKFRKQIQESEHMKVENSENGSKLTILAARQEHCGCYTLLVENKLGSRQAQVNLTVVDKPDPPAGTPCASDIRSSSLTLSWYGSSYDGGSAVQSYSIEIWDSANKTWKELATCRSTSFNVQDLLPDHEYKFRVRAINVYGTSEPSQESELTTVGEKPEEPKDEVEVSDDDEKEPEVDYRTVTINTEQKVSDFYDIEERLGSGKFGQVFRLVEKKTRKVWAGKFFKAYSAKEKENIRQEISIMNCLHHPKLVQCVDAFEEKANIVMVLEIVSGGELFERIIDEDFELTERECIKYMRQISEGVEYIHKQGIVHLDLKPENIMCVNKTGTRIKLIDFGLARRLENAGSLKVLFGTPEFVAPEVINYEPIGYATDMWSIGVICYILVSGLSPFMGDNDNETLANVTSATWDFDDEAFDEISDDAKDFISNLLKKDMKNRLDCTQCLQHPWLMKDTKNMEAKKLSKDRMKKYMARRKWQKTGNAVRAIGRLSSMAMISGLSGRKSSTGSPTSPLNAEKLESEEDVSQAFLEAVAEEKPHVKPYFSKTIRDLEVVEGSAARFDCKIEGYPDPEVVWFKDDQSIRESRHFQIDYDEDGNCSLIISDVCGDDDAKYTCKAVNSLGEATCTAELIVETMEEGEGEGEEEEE
T1 sequence (P42336 whole entry): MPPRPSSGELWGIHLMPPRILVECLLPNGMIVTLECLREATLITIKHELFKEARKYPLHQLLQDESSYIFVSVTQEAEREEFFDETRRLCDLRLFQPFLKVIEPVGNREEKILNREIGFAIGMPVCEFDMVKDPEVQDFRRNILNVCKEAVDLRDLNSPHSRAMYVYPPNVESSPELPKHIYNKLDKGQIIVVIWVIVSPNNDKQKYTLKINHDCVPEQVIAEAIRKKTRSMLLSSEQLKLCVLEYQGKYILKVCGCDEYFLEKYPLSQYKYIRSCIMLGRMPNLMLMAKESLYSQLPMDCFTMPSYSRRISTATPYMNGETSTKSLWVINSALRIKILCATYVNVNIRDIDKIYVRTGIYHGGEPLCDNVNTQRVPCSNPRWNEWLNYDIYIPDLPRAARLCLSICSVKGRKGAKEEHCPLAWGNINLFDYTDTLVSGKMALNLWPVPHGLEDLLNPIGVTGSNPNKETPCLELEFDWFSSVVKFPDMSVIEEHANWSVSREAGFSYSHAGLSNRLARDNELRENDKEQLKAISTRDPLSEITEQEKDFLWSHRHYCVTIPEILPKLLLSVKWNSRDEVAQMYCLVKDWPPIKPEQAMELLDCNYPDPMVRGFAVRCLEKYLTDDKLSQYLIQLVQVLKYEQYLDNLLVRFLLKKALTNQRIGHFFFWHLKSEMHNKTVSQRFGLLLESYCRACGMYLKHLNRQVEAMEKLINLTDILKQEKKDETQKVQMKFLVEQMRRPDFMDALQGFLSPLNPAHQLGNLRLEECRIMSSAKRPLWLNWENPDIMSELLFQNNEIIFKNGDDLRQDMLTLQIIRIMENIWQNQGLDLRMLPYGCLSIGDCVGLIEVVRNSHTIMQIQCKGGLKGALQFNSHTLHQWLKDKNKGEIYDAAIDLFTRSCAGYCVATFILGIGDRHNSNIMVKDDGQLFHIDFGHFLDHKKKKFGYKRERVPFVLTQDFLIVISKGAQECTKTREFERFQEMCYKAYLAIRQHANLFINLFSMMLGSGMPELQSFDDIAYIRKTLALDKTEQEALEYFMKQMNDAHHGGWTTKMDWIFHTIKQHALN
T1 sequence (P27986 whole entry partner): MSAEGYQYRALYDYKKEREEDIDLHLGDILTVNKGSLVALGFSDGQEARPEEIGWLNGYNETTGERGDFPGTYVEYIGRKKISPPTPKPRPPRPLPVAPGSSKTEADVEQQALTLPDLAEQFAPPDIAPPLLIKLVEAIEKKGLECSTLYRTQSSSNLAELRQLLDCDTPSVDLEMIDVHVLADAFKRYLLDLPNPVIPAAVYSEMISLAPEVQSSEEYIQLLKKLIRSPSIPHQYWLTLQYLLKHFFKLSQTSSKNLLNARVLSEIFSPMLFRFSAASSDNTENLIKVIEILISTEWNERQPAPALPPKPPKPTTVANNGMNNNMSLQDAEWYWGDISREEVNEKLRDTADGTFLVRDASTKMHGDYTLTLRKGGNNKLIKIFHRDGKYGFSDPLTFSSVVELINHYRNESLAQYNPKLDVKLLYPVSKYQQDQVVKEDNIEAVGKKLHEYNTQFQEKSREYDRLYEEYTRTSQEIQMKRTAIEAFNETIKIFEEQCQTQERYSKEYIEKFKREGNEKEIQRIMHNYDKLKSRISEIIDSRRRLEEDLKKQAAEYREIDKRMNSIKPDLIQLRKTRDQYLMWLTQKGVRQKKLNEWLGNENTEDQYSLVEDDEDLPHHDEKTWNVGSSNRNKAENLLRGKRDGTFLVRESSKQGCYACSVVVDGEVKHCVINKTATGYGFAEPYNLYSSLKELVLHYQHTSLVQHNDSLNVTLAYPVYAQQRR

Usually Kd stands for the constant that tells how readily two partners part at equilibrium. As for `CCN1CCN(c2ccc(Nc3cc(Nc4cccc5c4N(C(C)=O)CC5)ccn3)cc2)CC1` [Compound 1938], at full length p110α/p85α, the Kd came to 36 ± 5 µM. Besides, at MYLK (MLCK), the “% Displacement Point 1” value turned out to be 1.85%, the “% Displacement Point 2” value amounted to 2.24% and the “% Displacement mean” value is on record as 2%. Further, on STK17A (DRAK1), the “% Displacement Point 1” value is given as 2.26%, the “% Displacement Point 2” value is 10% and the “% Displacement mean” value came to 6.32%.
